Reference: US9814720B2, “Compositions and methods of inhibiting IL-17 expression of neutrophils” (priority 2014, dated 2017)

How the values were obtained:
A. fumigatus hyphae = experiment: In vitro fungal killing assay (hyphal coincubation) with murine neutrophils; assay type: cell-based, Aspergillus fumigatus; details: IL-6/23-stimulated, inhibitor 20 μM, FIG. 6D
Description: Aspergillus strains—For cornea infections and in vitro fungal killing assays, an RFP expressing strain of A. fumigatus (Af-dsRed) was used. This strain is gpdA promoter driven to constitutively express monomeric dsRed. For subcutaneous “priming” injections, heat-killed, swollen conidia Aspergillus fumigatus strain Af-BP was used. For the Aspergillus hyphal extract used in ROS assay, A. fumigatus strain Af-BP hyphae were pulverized in liquid nitrogen, filtered through a 30 μm pre-separation filter (Miltenyi Biotec) and protein measured by the BCA method (Pierce). Aspergillus hyphal extracts (AspHE) were stored at −20° C. and used at a final concentration of 1 mg/ml.
A hyphal coincubation assay was used to study the ability of murine and human neutrophils to inhibit A. fumigatus hyphal growth as described. Briefly, 12,500 A. fumigatus dsRed expressing conidia (strain Af-dsRed) per 200 μl Sabouraud dextrose media were added to wells of black-walled 96 well plates with an optically clear bottom (CoStar 3720). After 6 h, the conidia had germinated and the hyphae became adherent to the wells, at which time the medium was removed.
Murine and human neutrophils were incubated with p-STAT3 (20 μM Stattic or 20 μM INC424) or RORγt inhibitors (20 μM SR1001) for 2 h. Then the cells were stimulated with […] of rIL-6 and 2 μg/ml of rIL-23 for 3 h, washed, and 2×10^5 bone marrow-derived murine neutrophils or 10^5 human peripheral blood neutrophils, with or without recombinant IL-17A, were added to each well with growing hyphae. RPMI media was used as positive control (unimpaired growth), and PBS was used as a negative control (no growth (data not shown)). After 16 h the wells were washed with PBS and the dsRed fungal mass was quantified in a 96-well fluorometer at 550/600 nm excitation/emission filter (Synergy HT, Biotek).

p-STAT3 [1] = experiment: Western blot of total cell lysate of IL-6/23-stimulated human neutrophils; assay type: cell-based; details: IL-6/23 1 h, FIG. 5A
Description: Neutrophils were isolated from peripheral blood of healthy donors. Peripheral blood was incubated in 3% Dextran, and neutrophils isolated by Ficoll gradient centrifugation (Fisher Scientific), with neutrophil purity determined by staining with Wright-Giemsa.
Murine or human neutrophils were suspended at a density of 10^6 cells/ml and incubated with […] of recombinant mouse or human IL-6 and 2 μg/ml IL-23 in RPMI, and the cells were maintained for 1-3 h at 37° C. in 5% CO2. Various inhibitors were used for assessing STAT3 activation. For STAT3, neutrophils were treated with either the STAT3-SH2 inhibitor, Stattic (20 μM) obtained from Tocris, or the JAK-1, 2 inhibitor, INC424, (aka Ruxolitinib; 20 μM (Selleck BioChem)). For the determination of RORγt-dependent signaling, SR1001 (20 μM; Sigma) was used, which inhibits RORγt binding to the IL-17 promoter site. All inhibitors were added to neutrophils 2 h prior to recombinant IL-6 and IL-23 stimulation.
Neutrophils collected from primed or naïve C57BL/6 mice or unstimulated murine or human neutrophils were incubated with recombinant IL-6 and IL-23 for 60 min. After this time, cells were washed in PBS and lysed in ice-cold 1× lysis buffer (Cell Signaling Technology, Beverly, Mass.). Total protein was quantified using the BCA method, denatured with 2× Laemmli buffer (Sigma) and heated to 95° C. for 5 minutes. Nuclear extracts of the cells were prepared with the Pierce nuclear extract kit per the manufacturer's directions (Pierce). Ten μg of total protein was analyzed on a 12% SDS polyacrylamide gel, and transferred to nitrocellulose. Blots were probed with the following primary antibodies: Total STAT3 (R&D), p-STAT3 (R&D), RORγt (eBioscience), TATA box binding protein (TBP (Abcam)), and β-actin (Cell Signaling Technology). HRP-conjugated secondary antibodies were used (Santa Cruz Biotechnologies), and western blots developed with Supersignal West Femto Maximum Sensitivity Substrate (Pierce).

p-STAT3 [2] = experiment: STAT3 phosphorylation in IL-6/23-stimulated murine bone marrow neutrophils (flow cytometry); assay type: cell-based, C57BL/6 mice; details: inhibitor 20 μM, 1 h IL-6+IL-23, FIG. 4C
Description: Total bone marrow-derived cells were isolated from mouse femurs and tibias by flushing with RPMI and an 18-gauge needle. Erythrocytes were lysed with 1× lysis buffer (eBioscience), and bone marrow cells were separated on a Percoll (Fisher) gradient by density centrifugation (52%, 69%, and 78%). Cells at the 69-78% interface were harvested, and neutrophil purity (>98%) confirmed by flow cytometry and Wright-Giemsa staining. Murine or human neutrophils were suspended at a density of 10^6 cells/ml and incubated with […] of recombinant mouse or human IL-6 and 2 μg/ml IL-23 in RPMI, and the cells were maintained for 1-3 h at 37° C. in 5% CO2. Various inhibitors were used for assessing STAT3 activation. […] For the determination of RORγt-dependent signaling, SR1001 (20 μM; Sigma) was used, which inhibits RORγt binding to the IL-17 promoter site. All inhibitors were added to neutrophils 2 h prior to recombinant IL-6 and IL-23 stimulation. Corneas were dissected and incubated for 1 h at 37° C. in collaganese (80 U/ml) (C0130; Sigma-Aldrich), and washed in FACS buffer (PBS+1% FBS+0.5% Sodium azide). Ten corneas were pooled and analyzed by intracellular flow cytometry. Conversely, bone marrow cells or neutrophils were collected as described above and washed in FACS buffer. […] Cells were analyzed using a C6 Accuri flow cytometer (BD). […]

O=[N+]([O-])c1ccc2c(c1)S(=O)(=O)C=C2 [Stattic]
hyphal killing activity (A. fumigatus hyphae; plus rIL-17A): enhanced hyphal killing activity was detected
hyphal growth (fluorescent fungal mass) (A. fumigatus hyphae; without rIL-17A): did not further impede hyphal growth
RORγt expression (western blot) (p-STAT3 [1]): not altered
total STAT3 expression (western blot) (p-STAT3 [1]): not altered
p-STAT3 (western blot) (p-STAT3 [1]; inhibitor 20 μM): inhibited
p-STAT3 in IL-6/23 stimulated neutrophils (p-STAT3 [2]): completely inhibited
